Data: US11447465B2, “Pharmaceutical compounds for treatment of medical disorders” (Achillion Pharmaceuticals, Inc., priority 2017, dated 2022)

Molecular target: Human Factor D (Homo sapiens (Human), UniProt P00746)
Experiment: Human Factor D Assay
Type: biochemical
Conditions: Table 6; Human Factor D 80 nM, substrate Z-L-Lys-SBzl; read-out: IC5 (Stars)
Procedure: Human Factor D (purified from human serum, Complement Technology, Inc.) at 80 nM final concentration is incubated with test compound at various concentrations for 5 min at room temperature in 50 mM Tris, 1M NaCl, pH 7.5. A synthetic substrate Z-L-Lys-SBzl and DTNB (Ellman's reagent) are added to final concentrations of 100 μM each. Absorbance at 405 nm (A405) is recorded at 30 second intervals for 30 min using a microplate spectrophotometer. IC50 values are calculated by nonlinear regression of Complement Factor D reaction rates as a function of test compound concentration.

Sequence of Human Factor D (P00746 26-253): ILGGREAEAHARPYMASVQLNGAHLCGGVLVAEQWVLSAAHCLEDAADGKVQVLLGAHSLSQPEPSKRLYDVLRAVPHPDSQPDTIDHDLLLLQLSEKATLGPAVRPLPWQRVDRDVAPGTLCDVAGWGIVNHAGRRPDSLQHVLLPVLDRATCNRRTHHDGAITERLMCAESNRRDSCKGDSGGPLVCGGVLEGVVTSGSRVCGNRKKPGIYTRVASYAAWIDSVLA

Structure (SMILES) | IC50
CC(=O)c1nn(CC(=O)N2C[C@H](F)C[C@H]2C(=O)Nc2cccc(Br)n2)c2ccc(O[C@@H]3CO[C@H]4[C@@H]3OC[C@H]4OC(=O)[C@@H](N)C(C)C)cc12 [Compound T-57, (3R,3aR,6R,6aR)-6-((3-acetyl-1-(2-((2S,4R)-2-((6-bromopyridin-2-yl)carbamoyl)-4-fluoropyrrolidin-1-yl)-2-oxoethyl)-1H-indazol-5-yl)oxy)hexahydrofuro[3,2-b]furan-3-yl L-valinate] | < 1000 nM
CC(=O)c1nn(CC(=O)N2C[C@H](F)C[C@H]2C(=O)Nc2nc(Br)ccc2C)c2ccc(O[C@@H]3CO[C@H]4[C@@H]3OC[C@H]4OC(=O)[C@@H](N)C(C)C)cc12 [Compound T-58, (3R,3aR,6R,6aR)-6-((3-acetyl-1-(2-((2S,4R)-2-((6-bromo-3-methylpyridin-2-yl)carbamoyl)-4-fluoropyrrolidin-1-yl)-2-oxoethyl)-lH-indazol-5-yl)oxy)hexahydrofuro[3,2-b]furan-3-yl L-valinate] | < 1000 nM
CC(=O)c1nn(CC(=O)N2[C@H](C(=O)Nc3nc(Br)ccc3C)C[C@@]3(C)C[C@@H]23)c2ccc(OCCS(=O)(=O)CC3(C)COC3)cc12 [Compound T-59, (1R,5R)-2-(2-(3-acetyl-5-(2-(((3-methyloxetan-3-yl)methyl)sulfonyl)ethoxy)-1H-indazol-1-yl)acetyl)-N-(6-bromo-3-methylpyridin-2-yl)-5-methyl-2-azabicyclo[3.1.0]hexane-3-carboxamide] | < 1000 nM
CS(=N)(=O)COc1ccc2c(C(N)=O)nn(CC(=O)N3C[C@H](F)C[C@H]3C(=O)Nc3cccc(-c4ccccc4Cl)c3F)c2c1 (stereo partly drawn) [Compound T-60, 1-(2-((2S,4R)-2-((2′-chloro-2-fluoro-[1,1′-biphenyl]-3-yl)carbamoyl)-4-fluoropyrrolidin-1-yl)-2-oxoethyl)-6-((S-methylsulfonimidoyl)methoxy)-1H-indazole-3-carboxamide] | < 1000 nM
C/S(COc1ccc2c(C(N)=O)nn(CC(=O)N3C[C@H](F)C[C@H]3C(=O)Nc3cccc(-c4ccccc4Cl)c3F)c2c1)=N\C#N (stereo partly drawn) [Compound T-61] | < 1000 nM
CS(=O)(COc1ccc2c(C(N)=O)nn(CC(=O)N3C[C@H](F)C[C@H]3C(=O)Nc3cccc(-c4ccccc4Cl)c3F)c2c1)=NC#N (stereo partly drawn) [Compound T-62] | < 1000 nM
CC(=O)O[C@@H]1CO[C@H]2[C@@H]1OC[C@H]2Oc1ccc2c(c1)c(C(C)=O)nn2CC(=O)N1C[C@H](F)C[C@H]1C(=O)Nc1cccc(Br)n1 [Compound T-63, (3R,3aR,6R,6aR)-6-((3-acetyl-1-(2-((2S,4R)-2-((6-bromopyridin-2-yl)carbamoyl)-4-fluoropyrrolidin-1-yl)-2-oxoethyl)-1H-indazol-5-yl)oxy)hexa-hydrofuro[3,2-b]furan-3-yl acetate] | < 1000 nM

Same assay, conditions: Table 7; read-out: IC5 (Stars)

Structure (SMILES) | IC50
Cc1ccc(Br)nc1NC(=O)[C@@H]1C[C@@]2(C)C[C@H]2N1C(=O)Cn1nc(C(N)=O)c2cc(NC(=O)C3CCCC3(F)F)ccc21 (stereo partly drawn) [Compound T-65, 1-(2-((1R,3S,5R)-3-((6-bromo-3-methylpyridin-2-yl)carbamoyl)-5-methyl-2-azabicyclo[3.1.0]hexan-2-yl)-2-oxoethyl)-5-(2,2-difluorocyclopentane-1-carboxamido)-1H-indazole-3-carboxamide] | < 1000 nM
CC(=O)c1nn(CC(=O)N2[C@H](C(=O)Nc3nc(Br)ccc3C)C[C@@]3(C)C[C@@H]23)c2c(C)cc(NC(=O)C3CCCC3(F)F)cc12 (stereo partly drawn) [Compound T-66, (1R,3S,5R)-2-(2-(3-acetyl-5-(2,2-difluorocyclopentane-1-carboxamido)-7-methyl-1H-indazol-1-yl)acetyl)-N-(6-bromo-3-methylpyridin-2-yl)-5-methyl-2-azabicyclo[3.1.0]hexane-3-carboxamide] | < 1000 nM
CC(=O)c1nn(CC(=O)N2[C@H](C(=O)NCc3cccc(Cl)c3F)C[C@@]3(C)C[C@@H]23)c2c(C)cc(NC(=O)N3CCCC(F)(F)C3)cc12 [Compound T-67, (1R,3S,5R)-2-(2-(3-acetyl-5-(3,3-difluoropiperidine-1-carboxamido)-7-methyl-1H-indazol-1-yl)acetyl)-N-(3-chloro-2-fluorobenzyl)-5-methyl-2-azabicyclo[3.l.0]hexane-3-carboxamide] | < 1000 nM
CC(=O)c1nn(CC(=O)N2[C@H](C(=O)NCc3cccc(Cl)c3F)C[C@@]3(CNC(=O)COCCOCCNC(=O)COCCOCCNC(=O)CC[C@H](NC(=O)CCCCCCCCCCCCCCCCC(=O)O)C(=O)O)C[C@@H]23)c2c(C)cc(NC(=O)N3CCCC(F)(F)C3)cc12 [Compound T-68, (S)-1-((1R,3S,5R)-2-(2-(3-acetyl-5-(3,3-difluoropiperidine-1-carboxamido)-7-methyl-1H-indazol-1-yl)acetyl)-3-((3-chloro-2-fluorobenzyl)carbamoyl)-2-azabicyclo[3.1.0]hexan-5-yl)-24-carboxy-3,12,21,26-tetraoxo-5,8,14,17-tetraoxa-2,11,20,25-tetraazatritetracontan-43-oic acid] | < 1000 nM
Cc1ccc(Br)nc1NC(=O)[C@@H]1C[C@@]2(CNC(=O)COCCOCCNC(=O)COCCOCCNC(=O)CC[C@H](NC(=O)CCCCCCCCCCCCCCCCC(=O)O)C(=O)O)C[C@H]2N1C(=O)Cn1nc(C(N)=O)c2cc(Nc3cccnc3)ccc21 [Compound T-71, (S)-1-((1R,3S,5R)-3-((6-bromo-3-methylpyridin-2-yl)carbamoyl)-2-(2-(3-carbamoyl-5-(pyridin-3-ylamino)-1H-indazol-1-yl)acetyl)-2-azabicyclo[3.1.0]hexan-5-yl)-24-carboxy-3,12,21,26-tetraoxo-5,8,14,17-tetraoxa-2,11,20,25-tetraazatritetracontan-43-oic acid] | < 1000 nM
CCOP(=O)(CC)COc1ccc2c(C(C)=O)nn(CC(=O)N3C[C@H](F)C[C@H]3C(=O)Nc3nc(Br)ccc3C)c2c1 (stereo partly drawn) [Compound T-77, ethyl (((3-acetyl-1-(2-((2S,4R)-2-((6-bromo-3-methylpyridin-2-yl)carbamoyl)-4-fluoropyrrolidin-1-yl)-2-oxoethyl)-1H-indazol-6-yl)oxy)methyl)(ethyl)phosphinate] | < 1000 nM
CCOP(=O)(COc1ccc2c(C(C)=O)nn(CC(=O)N3C[C@H](F)C[C@H]3C(=O)Nc3nc(Br)ccc3C)c2c1)OCC [Compound T-78, diethyl (((3-acetyl-1-(2-((2S,4R)-2-((6-bromo-3-methylpyridin-2-yl)carbamoyl)-4-fluoropyrrolidin-1-yl)-2-oxoethyl)-1H-indazol-6-yl)oxy)methyl)phosphonate] | < 1000 nM
CCP(=O)(O)COc1ccc2c(C(C)=O)nn(CC(=O)N3C[C@H](F)C[C@H]3C(=O)Nc3nc(Br)ccc3C)c2c1 [Compound T-79, (((3-acetyl-1-(2-((2S,4R)-2-((6-bromo-3-methylpyridin-2-yl)carbamoyl)-4-fluoropyrrolidin-1-yl)-2-oxoethyl)-1H-indazol-6-yl)oxy)methyl)(ethyl)phosphinic acid] | < 1000 nM
CC(=O)c1nn(CC(=O)N2[C@H](C(=O)Nc3nc(Br)ccc3C)C[C@@]3(Cn4cc(C5CC5)nn4)C[C@@H]23)c2cnccc12 [Compound T-83, (1R,3S,5R)-2-(2-(3-acetyl-1H-pyrazolo[3,4-c]pyridin-1-yl)acetyl)-N-(6-bromo-3-methylpyridin-2-yl)-5-((4-cyclopropyl-1H-1,2,3-triazol-1-yl)methyl)-2-azabicyclo[3.1.0]hexane-3-carboxamide] | < 1000 nM
CC(=O)c1nn(CC(=O)N2[C@H](C(=O)Nc3nc(Br)ccc3C)C[C@@]3(C)C[C@@H]23)c2cc3sc(C)nc3cc12 [Compound T-84, (1R,3S,5R)-2-(2-(3-acetyl-6-methyl-1H-thiazolo[4,5-f]indazol-1-yl)acetyl)-N-(6-bromo-3-methylpyridin-2-yl)-5-methyl-2-azabicyclo[3.1.0]hexane-3-carboxamide] | < 1000 nM
CC(=O)c1nn(CC(=O)N2[C@H](C(=O)Nc3nc(Br)ccc3C)C[C@@]3(CNC(=O)COCCOCCNC(=O)COCCOCCNC(=O)CC[C@H](NC(=O)CCCCCCCCCCCCCCCCC(=O)O)C(=O)O)C[C@@H]23)c2ccccc12 [Compound T-85, (S)-1-((1R,3S,5R)-2-(2-(3-acetyl-1H-indazol-1-yl)acetyl)-3-((6-bromo-3-methylpyridin-2-yl)carbamoyl)-2-azabicyclo[3.1.0]hexan-5-yl)-24-carboxy-3,12,21,26-tetraoxo-5,8,14,17-tetraoxa-2,11,20,25-tetraazatritetracontan-43-oic acid] | < 1000 nM
Cc1ccc(Br)nc1NC(=O)[C@@H]1C[C@@]2(C)C[C@H]2N1C(=O)Cn1nc(N2CCCC2=O)c2ccncc21 [Compound T-86, (1R,3S,5R)-N-(6-bromo-3-methylpyridin-2-yl)-5-methyl-2-(2-(3-(2-oxopyrrolidin-1-yl)-1H-pyrazolo[3,4-c]pyridin-1-yl)acetyl)-2-azabicyclo[3.1.0]hexane-3-carboxamide] | > 10000 nM
Cc1ccc(Br)nc1NC(=O)[C@@H]1C[C@@]2(C)C[C@H]2N1C(=O)Cn1nc(N2CCC2=O)c2ccncc21 [Compound T-87, (1R,3S,5R)-N-(6-bromo-3-methylpyridin-2-yl)-5-methyl-2-(2-(3-(2-oxoazetidin-1-yl)-1H-pyrazolo[3,4-c]pyridin-1-yl)acetyl)-2-azabicyclo[3.1.0]hexane-3-carboxamide] | < 1000 nM
Cc1ccc(Br)nc1NC(=O)[C@@H]1C[C@@]2(C)C[C@H]2N1C(=O)Cn1nc(NCCC(=O)O)c2ccncc21 [Compound T-89, 3-((1-(2-((1R,3S,5R)-3-((6-bromo-3-methylpyridin-2-yl)carbamoyl)-5-methyl-2-azabicyclo[3.1.0]hexan-2-yl)-2-oxoethyl)-1H-pyrazolo[3,4-c]pyridin-3-yl)amino)propanoic acid] | > 10000 nM
